Test results: PMC7587962, “Evaluation of Cytotoxicity and α-Glucosidase Inhibitory Activity of Amide and Polyamino-Derivatives of Lupane Triterpenoids” (Molecules, 2020)
Where two headings read alike, the source gives them in different places.

Legend:
CCRF-CEM = assay: NCI-60 SRB screen: leukemia CCRF-CEM; assay type: cell-based; details: Homo sapiens, 48 h
K-562 = assay: NCI-60 SRB screen: leukemia K-562; assay type: cell-based, human; details: K-562
MOLT-4 = assay: NCI-60 SRB screen: leukemia MOLT-4; assay type: cell-based; details: Homo sapiens, 48 h, MOLT-4
RPMI-8226 = assay: NCI-60 SRB screen: leukemia RPMI-8226; assay type: cell-based; details: Homo sapiens, 48 h, RPMI-8226
EKVX = assay: NCI-60 SRB screen: non-small cell lung cancer EKVX; assay type: cell-based, human
HOP-62 = assay: NCI-60 SRB screen: non-small cell lung cancer HOP-62; assay type: cell-based, human; details: HOP-62
HOP-92 = assay: NCI-60 SRB screen: non-small cell lung cancer HOP-92; assay type: cell-based, human; details: HOP-92
NCI-H226 = assay: NCI-60 SRB screen: non-small cell lung cancer NCI-H226; assay type: cell-based, human; details: NCI-H226
NCI-H23 = assay: NCI-60 SRB screen: non-small cell lung cancer NCI-H23; assay type: cell-based, human; details: NCI-H23
NCI-H522 = assay: NCI-60 SRB screen: non-small cell lung cancer NCI-H522; assay type: cell-based, human; details: NCI-H522
HCC-2998 = assay: NCI-60 SRB screen: colon cancer HCC-2998; assay type: cell-based, human; details: HCC-2998
HCT-116 = assay: NCI-60 SRB screen: colon cancer HCT-116; assay type: cell-based; details: Homo sapiens, 48 h, HCT-116
SW-620 = assay: NCI-60 SRB screen: colon cancer SW-620; assay type: cell-based; details: Homo sapiens, 48 h, SW-620
SNB-75 = assay: NCI-60 SRB screen: CNS cancer SNB-75; assay type: cell-based, human; details: SNB-75
U251 = assay: NCI-60 SRB screen: CNS cancer U251; assay type: cell-based; details: Homo sapiens, U251
MDA-MB-435 = assay: NCI-60 SRB screen: melanoma MDA-MB-435; assay type: cell-based, human; details: MDA-MB-435
SK-MEL-28 = assay: NCI-60 SRB screen: melanoma SK-MEL-28; assay type: cell-based, human; details: SK-MEL-28
SK-MEL-5 = assay: NCI-60 SRB screen: melanoma SK-MEL-5; assay type: cell-based, human; details: SK-MEL-5
OVCAR-3 = assay: NCI-60 SRB screen: ovarian cancer OVCAR-3; assay type: cell-based, human; details: OVCAR-3
OVCAR-4 = assay: NCI-60 SRB screen: ovarian cancer OVCAR-4; assay type: cell-based; details: Homo sapiens; OVCAR-4; five concentrations, 48 h, SRB; read-out: GI50
OVCAR-5 = assay: NCI-60 SRB screen: ovarian cancer OVCAR-5; assay type: cell-based, human; details: OVCAR-5
NCI/ADR-RES = assay: NCI-60 SRB screen: ovarian cancer NCI/ADR-RES; assay type: cell-based, human
786-0 = assay: NCI-60 SRB screen: renal cancer 786-0; assay type: cell-based, human; details: 786-0
A498 = assay: NCI-60 SRB screen: renal cancer A498; assay type: cell-based, human; details: A498
SN12C = assay: NCI-60 SRB screen: renal cancer SN12C; assay type: cell-based, human
PC-3 = assay: NCI-60 SRB screen: prostate cancer PC-3; assay type: cell-based, human; details: PC-3
DU-145 = assay: NCI-60 SRB screen: prostate cancer DU-145; assay type: cell-based, human; details: DU-145
MDA-MB-231/ATCC = assay: NCI-60 SRB screen: breast cancer MDA-MB-231/ATCC; assay type: cell-based; details: Homo sapiens, 48 h
T-47D = assay: NCI-60 SRB screen: breast cancer T-47D; assay type: cell-based, human; details: T-47D
[1] = system: 60 human tumor cell lines; assay: cells
Leukemia subpanel = assay: NCI-60 screen, subpanel Leukemia
Melanoma subpanel = assay: NCI-60 screen, subpanel Melanoma
Ovarian Cancer subpanel = assay: NCI-60 screen, subpanel Ovarian Cancer
Prostate cancer subpanel = assay: NCI-60 screen, subpanel Prostate cancer
[2] = single dose 10 µM, read-out: Percentage Cell Growth
[3] = five concentrations, SRB, read-out: GI50
[4] = Homo sapiens, five concentrations, 48 h, SRB, read-out: GI50

With `CC(=O)OCC12CCC(C(C)C(N)=O)C1C1CCC3C4(C)CCC(OC(C)=O)C(C)(C)C4CCC3(C)C1(C)CC2` [Compound 4, 3β,28-Diacetyloxy-(20R)-29-amino-29-oxolupane] the activity at 10 µM (CCRF-CEM; [2]) was -12.4%, the GI50 (CCRF-CEM; [3]) was 5.19 µM and the GI50 (K-562; Homo sapiens, K562, five concentrations, 48 h, SRB, read-out: GI50) was 4.09 µM. The “Percentage Cell Growth” value (K-562; single dose 10 µM) was 3.10%, the activity at 10 µM (MOLT-4; [2]) was -29.1% and the GI50 (MOLT-4; [3]) was 3.29 µM. The activity at 10 µM (RPMI-8226; [2]) was -18.3%, the GI50 (RPMI-8226; [3]) was 2.63 µM and the GI50 (EKVX; [4]) was 9.28 µM. The “Percentage Cell Growth” value (EKVX; single dose 10 µM) was −25.21%, the “Percentage Cell Growth” value (HOP-62; single dose 10 µM) was −72.98% and the GI50 (HOP-62; [4]) was 1.1 µM. The “Percentage Cell Growth” value (HOP-92; single dose 10 µM) was −83.15%, the GI50 (HOP-92; [4]) was 5.21 µM and the GI50 (NCI-H226; [4]) was 7.28 µM. The “Percentage Cell Growth” value (NCI-H226; single dose 10 µM) was −58.51%, the GI50 (NCI-H23; [4]) was 9.42 µM and the “Percentage Cell Growth” value (NCI-H23; single dose 10 µM) was −40.35%. For the same compound, the GI50 (NCI-H522; [4]) was 4.94 µM, the “Percentage Cell Growth” value (NCI-H522; single dose 10 µM) was −61.13% and the “Percentage Cell Growth” value (HCC-2998; single dose 10 µM) was −68.10%. The GI50 (HCC-2998; [4]) was 10.4 µM, the activity at 10 µM (HCT-116; [2]) was -84.2% and the GI50 (HCT-116; [3]) was 3.57 µM. It also gave an activity at 10 µM (SW-620; [2]) of -55.1%, a GI50 (SW-620; [3]) of 7.7 µM and a GI50 (SNB-75; [4]) of 5.59 µM. The “Percentage Cell Growth” value (SNB-75; single dose 10 µM) was −47.83%, the activity at 10 µM (U251; U-251, 48 h, single dose 10 µM, read-out: Percentage Cell Growth) was -51.4% and the GI50 (U251; U-251, five concentrations, 48 h, SRB, read-out: GI50) was 5.1 µM. For the same compound, the GI50 (MDA-MB-435; [4]) was 5.23 µM, the “Percentage Cell Growth” value (MDA-MB-435; single dose 10 µM) was −63.78% and the GI50 (SK-MEL-28; [4]) was 12 µM. For the same compound, the “Percentage Cell Growth” value (SK-MEL-28; single dose 10 µM) was −73.19%, the GI50 (SK-MEL-5; [4]) was 3.8 µM and the “Percentage Cell Growth” value (SK-MEL-5; single dose 10 µM) was −71.94%. The GI50 (OVCAR-3; [4]) was 3.95 µM, the “Percentage Cell Growth” value (OVCAR-3; single dose 10 µM) was −76.19% and the GI50 (OVCAR-4) was 4.72 µM. For the same compound, the GI50 (OVCAR-5; [4]) was 14.4 µM, the “Percentage Cell Growth” value (OVCAR-5; single dose 10 µM) was −77.37% and the GI50 (NCI/ADR-RES; [4]) was 7.74 µM. The “Percentage Cell Growth” value (NCI/ADR-RES; single dose 10 µM) was −57.29%, the “Percentage Cell Growth” value (786-0; single dose 10 µM) was −73.99% and the GI50 (786-0; [4]) was 10.9 µM. For the same compound, the “Percentage Cell Growth” value (A498; single dose 10 µM) was −81.70%, the GI50 (A498; [4]) was 12.8 µM and the GI50 (SN12C; [4]) was 5.65 µM. The “Percentage Cell Growth” value (SN12C; single dose 10 µM) was −91.61%, the GI50 (PC-3; [4]) was 2.67 µM and the “Percentage Cell Growth” value (PC-3; single dose 10 µM) was −47.42%. For the same compound, the “Percentage Cell Growth” value (DU-145; single dose 10 µM) was −69.87%, the GI50 (DU-145; [4]) was 9.94 µM and the activity at 10 µM (MDA-MB-231/ATCC; MDA-MB-231/ATCC, single dose 10 µM, read-out: Percentage Cell Growth) was -88.6%. The GI50 (MDA-MB-231/ATCC; MDA-MB-231, MDA-MB-31/ATCC, five concentrations, SRB, read-out: GI50) was 11.8 µM, the GI50 (T-47D; Homo sapiens, T47D, five concentrations, 48 h, SRB, read-out: GI50) was 2.91 µM and the “Percentage Cell Growth” value (T-47D; single dose 10 µM) was −8.82%. The GI50 ([1]; read-out: GI50 ranges against all panels of NCI60) was 1.1 to 54.4 µM, the GI50 ([1]; read-out: MID a, average sensitivity of all cell line (GI50-MID)) was 7.87 µM and the “MID b, average sensitivity of all cell line of particular subpanel” value (“MID b, average sensitivity” for short) (Leukemia subpanel) was 3.55 µM. The “Selectivity, ratio MID a: MID b” value (Leukemia subpanel) was 2.22, the “MID b, average sensitivity” value (Melanoma subpanel) was 7.80 µM and the “Selectivity, ratio MID a: MID b” value (Melanoma subpanel) was 1.01. The “MID b, average sensitivity” value (Ovarian Cancer subpanel) was 15.97 µM, the “Selectivity, ratio MID a: MID b” value (Ovarian Cancer subpanel) was 0.49 and the “MID b, average sensitivity” value (Prostate cancer subpanel) was 6.31 µM. The “Selectivity, ratio MID a: MID b” value (Prostate cancer subpanel) was 1.25.
